Reference: US20160015064A1, “COMPOUNDS, COMPOSITIONS, AND METHODS FOR MODULATING SWEET TASTE” (CHROMOCELL CORPORATION, priority 2013, published 2016)

Columns and labels:
[1] = Beverage emulsion delivery systems, physical stability; format: physicochemical; details: NEOBEE® M-5 oil phase with Q-NATURALE®, no weighting agent
Protocol: Utilizing the triacetin and NEOBEE® M-5 oil solutions described in Example 6, emulsion systems were prepared to develop a clear delivery system. A suitable emulsion system would need to have a particle size of under 100 nanometers. A series of trials were conducted in which the triacetin and NEOBEE® M-5 oil solutions were combined with a variety of matrices including preserved water (i.e., water comprising 500 ppm sodium benzoate, 400 ppm potassium sorbate and 1000 ppm citric acid), Q-[…]®, lecithin, lyso-lecithin, and citrus oil. Pre-homogenization utilizing a Silverson High Shear mixer and final homogenization utilizing a high pressure homogenizer at 20,000 psi (up to 10 passes) only achieved a particle size reduction to 146 nanometers. The emulsions were stable in beverage but were opaque. […] Therefore incorporating the compounds into a cloudy beverage emulsion or homogenizing it into a cloudy citrus (orange juice) product may be beneficial. Without being bound by theory, the opacity of the beverage would, in effect, shield the compound from the detriment of light.
For a standard beverage emulsion, the compounds need to be dissolved in the oil phase of the emulsion. Unfortunately, the compounds were mostly insoluble in citrus oil (orange oil 5×). […]

[2] = tested on: sweetness enhancement effect and off-taste in lemon-lime beverage; assay: Sensory assessment / informal tasting of solubilized Compound 3 beverages; format: in vivo; details: sucrose co-melt
Protocol: For example, Compound 3 and polysorbate 80 were accurately weighed into screw-capped glass vials according to Table 9 and heated at 70-90° C. and vortex mixed to facilitate the solubilization. Q-[…]® was added to the 41.5 brix lemon-lime flavored beverage syrup. The polysorbate 80 mixtures were blended into 41.5 brix lemon-lime flavored beverage syrup with Q-[…]® 200 and vortex mixed at 3000 rpm for 75 seconds. The resulting syrups were stored overnight at room temperature. The syrup was then diluted with 5× water to achieve the final 7.7 brix lemon-lime beverage. […] Solution PQ2 was able to maintain clear solution for 1 month.
Because Q-[…]® was able to maintain the stability of the sweet enhancing compounds, it was evaluated in combination with additional solvents. […] In another example, Compound 3, Q-[…]®, and either 1,2-propylene glycol or ethanol 200 proof were accurately weighed into screw-capped glass vials according to Table 10 and heated and vortex mixed to facilitate the solubilization. The resulting solution mixtures were blended into 41.5 brix lemon-lime flavored beverage syrup and vortexed at 3000 rpm for 75 seconds. The resulting syrups were stored overnight at refrigerated temperature and diluted with 5× water to achieve the final 7.7 brix lemon-lime beverage. […]
The ability of sugar to co-melt with compounds of the invention was also evaluated. […]

[3] = tested on: sweetness of orange juice beverage; assay: Panel sweetness of 75% orange juice with Compound 3 compared to 100% orange juice; format: in vivo
Protocol: Concentrated citrus juice (e.g., orange juice concentrate and lemon juice concentrate) can be used to emulsify flavor oils directly. Dilutions of the Compound 3 were made by dissolving the compound into NEOBEE® M-5 oil at 20 mg/ml and into triacetin at 40 mg/ml. These dilutions were then added to orange juice concentrate (60 brix and 63 brix) and lemon juice concentrate (400 gpl) to deliver a final concentration of 15-30 ppm Compound 3, and blended with the Silverson High Shear Mixer. The juices were diluted to their single strength levels (or less) for final consumption.
In one example, Compound 3 was dissolved into triacetin at a concentration of 40 mg/ml. The Compound 3-triacetin mixture was added to orange juice concentrate (1+3 throw) and blended using a high shear mixer. The concentrate was then diluted to a 75% juice product (8.85 brix) and compared to single strength orange juice (11.8 brix). The test sample contained Compound 3 at 20 ppm. Other test variables using 1+5 were included in the panel. Tests were performed with just Compound 3 in orange juice at full strength and 75%. Compound 3 was dosed at 20 and 30 ppm, and the resulting solutions were tested at day 1, 7, 14, and 21. N varied between 9 and 14 panelists.

SMILES: COc1ccc(C2CC(=O)c3c(O)cccc3O2)cc1O (single isomer, unassigned) [Compound 3, 5-hydroxy-2-(3-hydroxy-4-methoxyphenyl)chroman-4-one]
- Physical stability of emulsion [1]: physically stable
- Sweetness enhancement effect in final beverage (sensory assessment) ([2]; 7.7 brix lemon-lime beverage): maintained its sweetness enhancement effect
- Off-taste (informal tasting assay) ([2]; lemon-lime beverage): perceptible off-taste
- Relative Sweetness Compared to Control (100% OJ) ([3]; T1: 75% OJ w/20 ppm, Fresh, Day 1 (Fresh)): Same as Control
- Relative Sweetness Compared to Control (100% OJ) ([3]; T2: 75% OJ w/30 ppm, Aged, Day 21): added sweetness
- Relative Sweetness Compared to Control (100% OJ) ([3]; T2: 75% OJ w/30 ppm, Fresh, Day 1 (Fresh)): Same as Control
